From ChEMBL document CHEMBL1201862, “PubChem BioAssay data set” (2004)
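Interpolation was linear, between the two tested concentrations surrounding the appropriate level; five concentrations were tested over 48 hours in 96-well plates. GI50 marks 50% less growth.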 Calls of active or inactive are those of the source. Cut-off read from the data, not from the text of the source: active = GI50 up to about 1.1 µM and inactive = higher.

How the values were obtained:
Assay in all cases: NCI anticancer screen, dose series, 48 h
CCRF-CEM = test system: CCRF-CEM
UO-31 = test system: UO-31
MDA-N = test system: MDA-N
SN12C = test system: SN12C
Hs-578T = test system: Hs-578T
HCT-15 = test system: HCT-15
HOP-62 = test system: HOP-62
OVCAR-5 = test system: OVCAR-5
U-251 = test system: U-251
SF-539 = test system: SF-539
SR = test system: SR
HL-60 = test system: HL-60
COLO 205 = test system: COLO 205
NCI-H460 = test system: NCI-H460
CAKI-1 = test system: CAKI-1
HCC 2998 = test system: HCC 2998
MCF7 = test system: MCF7
MDA-MB-231 = test system: MDA-MB-231

Row | Structure (SMILES) | GI50 (CCRF-CEM) | GI50 (UO-31) | GI50 (MDA-N) | GI50 (SN12C) | GI50 (Hs-578T) | GI50 (HCT-15) [µM] | GI50 (HOP-62) | GI50 (OVCAR-5) | GI50 (U-251) | GI50 (SF-539) | GI50 (SR) | GI50 (HL-60) | GI50 (COLO 205) | GI50 (NCI-H460) | GI50 (CAKI-1) | GI50 (HCC 2998) | GI50 (MCF7) | GI50 (MDA-MB-231)
1 | COc1cc(C2c3cc4c(c(O)c3C(=O)C3CCC(=O)N32)OCO4)cc(OC)c1OC (stereo not drawn) | 31.3 µM (inactive) | 26.7 µM (inactive) | 30.4 µM (inactive) | > 100 µM (inactive) | 37.7 µM (inactive) | 48.8 | 82.8 µM (inactive) | > 100 µM (inactive) | > 100 µM (inactive) | 46.9 µM (inactive) | 44.8 µM (inactive) | 45 µM (inactive) | 5.52 µM (inactive) | 52.6 µM (inactive) | 47.3 µM (inactive) | 32 µM (inactive) | 77.1 µM (inactive) | 
2 | CCNC(=S)NNC(=O)c1csc(NC(=S)NC2CCCCC2)n1 | 4.55 µM (inactive) | 8.45 µM (inactive) | 2.9 µM (inactive) | 3.19 µM (inactive) |  | 1.67 | 10.6 µM (inactive) | 26.9 µM (inactive) | 9.95 µM (inactive) | 6.17 µM (inactive) | 3.5 µM (inactive) |  | 8.53 µM (inactive) | 6.62 µM (inactive) | 6.71 µM (inactive) | 8.17 µM (inactive) | 4.69 µM (inactive) | 6.53 µM (inactive)
3 | Cc1ccc(Sc2ccccc2C23OC(C)(C4C(=O)N(c5ccccc5)C(=O)C42)N(C)C3=O)cc1 (stereo not drawn) | > 100 µM (inactive) | > 100 µM (inactive) | > 100 µM (inactive) | 90.2 µM (inactive) | 59.4 µM (inactive) | > 100 |  | > 100 µM (inactive) | > 100 µM (inactive) | > 100 µM (inactive) | > 100 µM (inactive) | > 100 µM (inactive) | > 100 µM (inactive) | > 100 µM (inactive) | > 100 µM (inactive) |  |  | > 100 µM (inactive)
4 | CCC(C)c1c(Cl)nc(Cl)nc1Cl (stereo not drawn) | 0.1 µM (active) | 17.9 µM (inactive) | 6.44 µM (inactive) | 6.89 µM (inactive) | 21.6 µM (inactive) | 5.13 | 4.72 µM (inactive) | 16.7 µM (inactive) | 4.16 µM (inactive) | 23.4 µM (inactive) | 1.25 µM (inactive) | 2.99 µM (inactive) |  | 7.46 µM (inactive) |  | 11.4 µM (inactive) | 4.45 µM (inactive) | 
5 | CCOC(=O)c1c(N2CCCC2)nsc1Nc1ccccc1 | > 100 µM (inactive) | 27.5 µM (inactive) | > 100 µM (inactive) | > 100 µM (inactive) | 60 µM (inactive) | > 100 |  | 44.6 µM (inactive) |  | > 100 µM (inactive) | > 100 µM (inactive) | > 100 µM (inactive) | > 100 µM (inactive) | > 100 µM (inactive) | > 100 µM (inactive) | > 100 µM (inactive) |  | > 100 µM (inactive)
6 | C[C@]12CC[C@H](O)CC1=CC[C@@H]1[C@@H]2CC[C@]2(C)C(=O)/C(=C/c3ccc([N+](=O)[O-])cc3)C[C@@H]12 | > 100 µM (inactive) | 11 µM (inactive) | 51.5 µM (inactive) | 11.2 µM (inactive) | 7.83 µM (inactive) | 28.8 | 5.9 µM (inactive) | 19.2 µM (inactive) |  | 6.92 µM (inactive) | 93.8 µM (inactive) | 36.4 µM (inactive) |  | 23.8 µM (inactive) | 24.1 µM (inactive) | 20 µM (inactive) | 32.2 µM (inactive) | 
7 | S=c1sc2ccccc2n1CN1CCN(Cc2ccccc2)CC1 | > 100 µM (inactive) | > 100 µM (inactive) |  | > 100 µM (inactive) | > 100 µM (inactive) | > 100 | > 100 µM (inactive) | > 100 µM (inactive) | > 100 µM (inactive) | > 100 µM (inactive) |  | > 100 µM (inactive) | > 100 µM (inactive) | > 100 µM (inactive) | > 100 µM (inactive) | > 100 µM (inactive) | > 100 µM (inactive) | 
8 | CNc1nnc(CNc2ccc(-c3nnc(NC)n3N)cc2)n1N | > 100 µM (inactive) | > 100 µM (inactive) | > 100 µM (inactive) | > 100 µM (inactive) |  | > 100 | > 100 µM (inactive) | > 100 µM (inactive) | > 100 µM (inactive) | > 100 µM (inactive) |  | 39.5 µM (inactive) | > 100 µM (inactive) | > 100 µM (inactive) | > 100 µM (inactive) | < 0.01 µM (active) | > 100 µM (inactive) | > 100 µM (inactive)
9 | C/C(=N\O)c1ccc2ccc3ccccc3c2c1 | 51.3 µM (inactive) | 35.1 µM (inactive) |  | 30.8 µM (inactive) | 27.6 µM (inactive) | 28.9 | > 100 µM (inactive) | 52.2 µM (inactive) | 29.8 µM (inactive) | 17.5 µM (inactive) | 21.8 µM (inactive) | 22.2 µM (inactive) | 37.3 µM (inactive) | 42.6 µM (inactive) | 51.9 µM (inactive) |  | 41.1 µM (inactive) | 28.1 µM (inactive)
10 | CCOC(=O)C1(C/C=C\CBr)CCCC1=O (stereo not drawn) |  | 21.9 µM (inactive) |  | 18.4 µM (inactive) | 55.6 µM (inactive) | 26.9 | 29.1 µM (inactive) | 31.2 µM (inactive) | 20.1 µM (inactive) | 24.6 µM (inactive) |  |  | 37.3 µM (inactive) |  | 48.8 µM (inactive) |  | 11.5 µM (inactive) | 25.6 µM (inactive)
11 | Brc1ccc2nc(-c3cccs3)nc(N3CCN(c4ccccc4)CC3)c2c1 |  | > 100 µM (inactive) |  | > 100 µM (inactive) | > 100 µM (inactive) | > 100 | > 100 µM (inactive) | > 100 µM (inactive) | > 100 µM (inactive) | > 100 µM (inactive) | > 100 µM (inactive) | > 100 µM (inactive) | > 100 µM (inactive) | > 100 µM (inactive) | > 100 µM (inactive) | > 100 µM (inactive) | > 100 µM (inactive) | > 100 µM (inactive)
12 | CN1C(=O)C(O)CC1c1ccccc1C(F)(F)F (stereo not drawn) | > 100 µM (inactive) | > 100 µM (inactive) | > 100 µM (inactive) | > 100 µM (inactive) |  | > 100 | > 100 µM (inactive) | > 100 µM (inactive) | > 100 µM (inactive) | > 100 µM (inactive) | > 10 µM (inactive) | > 100 µM (inactive) | > 100 µM (inactive) | > 100 µM (inactive) | > 100 µM (inactive) | > 100 µM (inactive) | > 100 µM (inactive) | > 100 µM (inactive)
13 | N=C(N)N1CCC(N2CCOCC2)CC1 | > 100 µM (inactive) | > 100 µM (inactive) |  | > 100 µM (inactive) | > 100 µM (inactive) | > 100 | > 100 µM (inactive) | > 100 µM (inactive) | > 100 µM (inactive) | > 100 µM (inactive) | > 100 µM (inactive) | > 100 µM (inactive) | > 100 µM (inactive) | > 100 µM (inactive) |  | > 100 µM (inactive) | > 100 µM (inactive) | > 100 µM (inactive)
14 | CC(CO)CCC(O)C(C)(O)C1CCC2(O)C3=CC(=O)C4CC(O)C(O)CC4(C)C3CCC12C (stereo not drawn) | 81.3 µM (inactive) | > 100 µM (inactive) | > 100 µM (inactive) | > 100 µM (inactive) |  | > 100 | > 100 µM (inactive) | > 100 µM (inactive) | > 100 µM (inactive) | > 100 µM (inactive) | > 100 µM (inactive) | > 100 µM (inactive) | > 100 µM (inactive) | > 100 µM (inactive) | > 100 µM (inactive) | > 100 µM (inactive) | > 100 µM (inactive) | > 100 µM (inactive)
15 | CC(C)(C)OC(=O)[C@H]1CCC(=S)N1Cc1ccccc1 | > 100 µM (inactive) | > 100 µM (inactive) | > 100 µM (inactive) | > 100 µM (inactive) |  | > 100 |  | > 100 µM (inactive) | > 100 µM (inactive) | > 100 µM (inactive) | > 100 µM (inactive) | > 100 µM (inactive) | > 100 µM (inactive) | > 100 µM (inactive) | > 100 µM (inactive) | > 100 µM (inactive) | > 100 µM (inactive) | > 100 µM (inactive)
16 | Cc1cc(S(=O)(=O)Nc2nc(N)nc(N(C)C)n2)c(SC(C(=O)O)c2ccccc2)cc1Cl (stereo not drawn) | > 10 µM (inactive) | > 10 µM (inactive) | > 10 µM (inactive) | > 10 µM (inactive) | > 10 µM (inactive) | > 10 | > 10 µM (inactive) | > 10 µM (inactive) | > 10 µM (inactive) | > 10 µM (inactive) | > 10 µM (inactive) | > 10 µM (inactive) | > 10 µM (inactive) | > 10 µM (inactive) | > 10 µM (inactive) | > 10 µM (inactive) | > 10 µM (inactive) | 
17 | Oc1c(NCn2nc(CCCCCCCCc3nn(CNc4ccc5ccccc5c4O)c(=S)o3)oc2=S)ccc2ccccc12 |  | 98.2 µM (inactive) | 17.2 µM (inactive) | > 100 µM (inactive) |  | 35.6 | 94.2 µM (inactive) | 43.9 µM (inactive) | 86.5 µM (inactive) |  |  |  | > 100 µM (inactive) | > 100 µM (inactive) | > 100 µM (inactive) | > 100 µM (inactive) | 67.6 µM (inactive) | 20 µM (inactive)
18 | CN(C)CS/C(N)=N\C(O)C(Cl)(Cl)Cl (stereo not drawn) | 51.6 µM (inactive) | > 100 µM (inactive) | > 100 µM (inactive) | > 100 µM (inactive) | > 100 µM (inactive) | > 100 | > 100 µM (inactive) | > 100 µM (inactive) | > 100 µM (inactive) |  | 82.2 µM (inactive) |  |  | > 100 µM (inactive) | > 100 µM (inactive) | > 100 µM (inactive) |  | > 100 µM (inactive)
